Test results reported in paper PMC8426295, “Cytotoxic and radiosensitising effects of a novel thioredoxin reductase inhibitor in breast cancer” (Investigational New Drugs, 2021).
Marks after values point to notes of the source that are not given here.

Legend:
MCF-7 cells [1] = assay: Cell proliferation assay (cell count); type: cell-based; conditions: Homo sapiens, MCF7, 48 h
Experimental: (§1) 1 × 10^5 cells (2 × 10^5 for T47D’s) were seeded, in triplicate, in 6-well plates and incubated overnight before being treated with IQ9 (0–5000 nM) or doxorubicin (400–600 nM) (positive control and comparator). Total cells were counted after 48 h using a haemocytometer. The total cell count in drug treatment wells was normalised as a percentage of the total cells in vehicle control wells.
(§2) IC50 values were calculated from dose-response curves using an SPSS regression model between inhibition ratios and concentration gradients. The radiobiological parameters: alpha (α), beta (β), α/β ratio, and surviving fraction at 2 Gy (SF2) were extracted from the survival curves fitted using the LQ model. All results are presented as average ± standard deviation (SD) of three independent experiments, each performed in triplicate. Data were analysed using the student T-test and ANOVA one-way test. Statistical analysis was performed using SPSS 23.0 software. Values of P < 0.05 were considered statistically significant.

MDA-MB-231 cells [2] = assay: Cell proliferation assay (cell count); type: cell-based; conditions: Homo sapiens, MDA-MB-231, 48 h
Experimental: as §1, §2

MDA-MB-436 cells [3] = assay: Cell proliferation assay (cell count); type: cell-based; conditions: Homo sapiens, MDA-MB-436, 48 h
Experimental: as §1, §2

MDA-MB-468 cells [4] = assay: Cell proliferation assay (cell count); type: cell-based; conditions: Homo sapiens, MDA-MB-468, 48 h
Experimental: as §1, §2

T47D cells [5] = assay: Cell proliferation assay (cell count); type: cell-based; conditions: Homo sapiens, 48 h
Experimental: as §1, §2

MCF-7 cells [6] = assay: Drug-radiation combination clonogenic survival (LQ model); type: cell-based, human; conditions: 1000 nM IQ9 for 4 h followed by irradiation
Experimental: (§3) 5 × 10^5 cells were seeded in T25 cm^2 tissue culture flasks and incubated overnight. The sub-confluent cells were then treated either for 4-h or 48-h with IQ9 (0–5000 nM) or doxorubicin (10–20 nM). Following drug treatment, cells were collected, counted, and plated at low-density, in triplicate, and incubated, at 37 °C, 5% CO2, undisturbed, for 2 weeks for TNBC cells and 3 weeks for luminal cells, for colony formation. Colonies were fixed (50% methanol in 0.9% saline solution) and stained (0.5% crystal violet solution). Colonies consisting of more than 50 cells were confirmed by microscopy and scored as survivors. The plating efficiency (PE) was calculated as numbers of colonies formed/ numbers of cells plated. For single-agent treatment, drug or radiation, the surviving fraction was calculated as: number of colonies formed/ (numbers of cell plated x PE). For drug radiation combination experiments, cytotoxicity of drug treatment was accounted for by calculating surviving fraction as: number of colonies formed from each radiation dose/ (number of cells plated × PE × surviving fraction of drug-treated cell at 0 Gy).
(§4) Sub-confluent cells were irradiated with a dose of 2, 4, 6, or 8 Gy (at a dose rate of 0.87 Gy/min) using an RS225 x-ray cabinet irradiation system (Xstrahl Limited, UK), fitted with a 0.5 mm Cu filter and run at 195 kV, 10 mA. Following irradiation, cells were immediately trypsinised and plated for clonogenic survival. Sham-irradiated cells were used as controls. Dose-response curves were plotted as a function of radiation dose on a log/ linear plot. Clonogenic survival calculation software (CS-CAL), developed by the Translational Radiation Oncology Group, German Cancer Research Centre was used to fit survival curves to the linear-quadratic (LQ) model (equation: […] ). The software can be accessed online at http://angiogenesis.dkfz.de/oncoexpress/software/cs-cal/. For drug-radiation combinations, cells were treated with 1000 nM IQ9 (2500 nM for T47D) for 4 h followed by irradiation (0–8 Gy). For 48 h drug treatment experiments, MDA-MB-231 and T47D cells were treated with clonogenic IC50 concentrations of IQ9 before irradiation. The sensitiser enhancement ratio (SER), calculated by dividing the X-ray dose causing 1% cell survival in the absence of drug treatment by the X-ray dose leading to 1% cell survival in the presence of drug treatment, was used to evaluate the degree of radiosensitisation.
as §2

MDA-MB-231 cells [7] = assay: as above; type: cell-based, human; conditions: for SER (sensitiser enhancement ratio): at 1% cell survival
Experimental: as §3, §4, §2

MDA-MB-436 cells [8] = assay: as above; type: cell-based, human
Experimental: as §3, §4, §2

MDA-MB-468 cells [9] = assay: as above; type: cell-based, human
Experimental: as §3, §4, §2

T47D cells [10] = assay: as above; type: cell-based, human; conditions: for SER (sensitiser enhancement ratio): at 1% cell survival
Experimental: as §3, §4, §2

Txnip = assay: Western blotting of Txnip expression; type: cell-based, human; conditions: any of the breast cancer cell lines, clonogenic IC50 concentration, 48 h
Experimental: Cells were treated with IQ9 (clonogenic IC50 concentrations) for 48 h, harvested, and resuspended in 1 mL of RIPA buffer (Sigma, UK) supplemented with 1X Halt phosphatase inhibitor cocktail, protease inhibitor cocktail, and EDTA. Samples were run on an SDS-polyacrylamide gel and transferred onto a 0.2 μm nitrocellulose membrane (GE Healthcare). The membrane was then blocked using 5% milk powder in 0.1% PBS/ Tween20, for 1 h at room temperature and then incubated with primary antibody overnight at 4 °C. Anti-β-actin antibody (Abcam) was used as a loading control. Primary antibodies were rabbit anti-human Trx (Abcam; 1:1000), mouse anti-human antibody (Abcam; 1:500), and rabbit anti-human Txnip (Abcam; 1:500). For Trx and Txnip, bands were detected using an Odyssey FC Imager (LI-COR). Images were obtained and fluorescence intensity quantified using Image Studio Software (version 4). The signals for Trx and Txnip were normalised against β-actin. For TrxR, bands were detected using an Amersham Enhanced Chemiluminescence system (GE Healthcare).

[11] = 1000 nM IQ9 for 4 h followed by irradiation
[12] = IQ9 exposure 48 h before irradiation
[13] = clonogenic IC50 concentration of IQ9 for 48 h before irradiation
[14] = 1000 nM IQ9 for 4 h followed by irradiation, at 1% cell survival
[15] = IQ9 for 4 h followed by irradiation, vs control
[16] = 2500 nM IQ9 for 4 h followed by irradiation

COC1=CC(=O)c2c(c(COc3c(F)cc(F)cc3F)cn2C)C1=O [IQ9]
IC50 (MCF-7 cells [1]): 379 ± 42.4 nM
IC50 (MDA-MB-231 cells [2]): 246 ± 55.3 nM
IC50 (MDA-MB-436 cells [3]): 171 ± 81.4 nM
IC50 (MDA-MB-468 cells [4]): 425 ± 155 nM
IC50 (T47D cells [5]): 1430 ± 255 nM
SF2 (surviving fraction at 2 Gy) (MCF-7 cells [6]): 0.24 ± 0.10
α (MCF-7 cells [6]): 0.58 ± 0.18 Gy^−1
α/β Ratio (MCF-7 cells [6]): 7.25 ± 3.19
β (MCF-7 cells [6]): 0.08 ± 0.02 Gy^−2
SER (sensitiser enhancement ratio) (MCF-7 cells [6]; at 1% cell survival): 1.08
SF2 (surviving fraction at 2 Gy) (MDA-MB-231 cells [7]; [11]): 0.21 ± 0.02
α (MDA-MB-231 cells [7]; [11]): 0.70 ± 0.17 Gy^−1
α/β Ratio (MDA-MB-231 cells [7]; [11]): 11.67 ± 3.63
β (MDA-MB-231 cells [7]; [11]): 0.06 ± 0.01 Gy^−2
SER (sensitiser enhancement ratio) (MDA-MB-231 cells [7]; [11]): 1.20
radiosensitivity (in words) (MDA-MB-231 cells [7]; [12]): no significant increase in radiosensitivity
SF2 (surviving fraction at 2 Gy) (MDA-MB-231 cells [7]; [13]): 0.22 ± 0.08
α (MDA-MB-231 cells [7]; [13]): 0.85 ± 0.04 Gy^−1
α/β Ratio (MDA-MB-231 cells [7]; [13]): 25.60 ± 4.62
β (MDA-MB-231 cells [7]; [13]): 0.03 ± 0.01 Gy^−2
SER (sensitiser enhancement ratio) (MDA-MB-231 cells [7]; [13]): 1.07
SF2 (surviving fraction at 2 Gy) (MDA-MB-436 cells [8]; [11]): 0.07 ± 0.01
α (MDA-MB-436 cells [8]; [11]): 1.33 ± 0.06* Gy^−1
α/β Ratio (MDA-MB-436 cells [8]; [11]): 66.53 ± 2.89
β (MDA-MB-436 cells [8]; [11]): 0.02 ± 0.00 Gy^−2
SER (sensitiser enhancement ratio) (MDA-MB-436 cells [8]; [14]): 1.43
factor of increase in α (MDA-MB-436 cells [8]; [15]): 1.8
SF2 (surviving fraction at 2 Gy) (MDA-MB-468 cells [9]; [11]): 0.19 ± 0.01
α (MDA-MB-468 cells [9]; [11]): 0.85 ± 0.08* Gy^−1
α/β Ratio (MDA-MB-468 cells [9]; [11]): 85.00 ± 8.18
β (MDA-MB-468 cells [9]; [11]): 0.01 ± 0.00 Gy^−2
SER (sensitiser enhancement ratio) (MDA-MB-468 cells [9]; [14]): 1.30
factor of increase in α (MDA-MB-468 cells [9]; [15]): 1.4
SF2 (surviving fraction at 2 Gy) (T47D cells [10]; [16]): 0.45 ± 0.02
α (T47D cells [10]; [16]): 0.47 ± 0.04 Gy^−1
α/β Ratio (T47D cells [10]; [16]): 15.66 ± 1.17
β (T47D cells [10]; [16]): 0.03 ± 0.00 Gy^−2
SER (sensitiser enhancement ratio) (T47D cells [10]; [16]): 1.00
radiosensitivity (in words) (T47D cells [10]; [12]): no significant increase in radiosensitivity
radiosensitisation (in words) (T47D cells [10]; IQ9 for 4 h followed by irradiation): no altered radiosensitisation
SF2 (surviving fraction at 2 Gy) (T47D cells [10]; [13]): 0.31 ± 0.04
α (T47D cells [10]; [13]): 0.40 ± 0.12 Gy^−1
α/β Ratio (T47D cells [10]; [13]): 7.27 ± 5.53
β (T47D cells [10]; [13]): 0.05 ± 0.02 Gy^−2
SER (sensitiser enhancement ratio) (T47D cells [10]; [13]): 1.00
Txnip expression (Txnip): not affected
